Experimental data reported in US20200078453A1, “METHODS OF TREATING A MAMMAL SUFFERING FROM OR SUSCEPTIBLE TO AN IMMUNE REACTION TO DRUG TREATMENT” (Idogen AB, priority 2015, published 2020).
Like-named read-outs stand apart in the source and are kept apart here.

Experiments:
[1] = test system: IDO1 gene expression (mRNA level) in THP-1 cells; test: Induction of IDO1 in THP-1 cells, RT-qPCR; format: cell-based, human; conditions: compound alone, 0.1-10 micromolar
Protocol: THP-1 cells were harvested from appropriate number of T75 flasks. Cells were counted in a Bürker chamber, stained with 0.4% Trypan Blue. The appropriate number of cells for each experiment were transferred to a new tube and centrifuged at 1200 rpm, 5 min at room temperature (RT). The supernatant was discarded and fresh RPMI with 5% FBS were added to get a cell concentration of 2×10^5 cells/mL. The compound was added to the five separate wells in 6-well plates such that five different final concentrations were obtained after adding the cells. A control was added to one well in the 6-well plate to which cells were added. 1×10^6 cells per well were seeded out to achieve a total volume of 5 mL per well. The cells were incubated at 37° C. in 5% CO2 for 96 hours. After 96 hours the assay was stopped and the cells were lysed for the isolation of RNA.
Total RNA was extracted from THP-1 cells using the RNA RNeasy Mini extraction kit (Qiagen), according to the manufacturer's instructions. […]
Following RNA extraction and quantification of gene expression by RT-qPRC, as described above, induction of IDO1 gene expression using Samples 1 to 6 was investigated. […]
Following RNA extraction and quantification of gene expression by RT-qPRC, as described above, induction of IDO1 gene expression using Samples 7 to 12 was investigated.

[2] = cited from earlier work
[3] = cited from earlier work; remark: listed apart in the source

SMILES	increase of IDO1 gene expression (maximum) [1]	toxicity ([2]; at high concentrations)	cytotoxicity ([2]; in vitro and in vivo, at used concentrations)	half-life ([3]; 37° C. in PBS at pH 1.0)	half-life ([3]; 37° C. in PBS at pH 7.0) [days]
Nc1ncn([C@H]2C[C@H](O)[C@@H](CO)O2)c(=O)n1 [decitabine, 5-aza-2′-deoxycytidine]	up to 101 fold	–	–	–	–
Nc1ncn([C@@H]2O[C@H](CO)[C@@H](O)[C@H]2O)c(=O)n1 [5-azacytidine]	up to 23 fold	–	–	–	–
O=c1ncccn1[C@@H]1O[C@H](CO)[C@@H](O)[C@H]1O [Zebularine]	–	toxic	minimally cytotoxic	approximately 44 h	~21.2
